Reference: the CheMixHub ionic liquid set

Experiment: xn = mol fraction of the nth substance listed
Details: 101 kPa

CCCCCCCCCCCCCCCC[n+]1ccccc1.O=C([O-])c1ccccc1O + CC(C)C[C@H](N)C(=O)O + O
electrical conductivity [S/m]
Details	293.15 K	298.15 K	303.15 K	308.15 K	313.15 K
x2 = 0.0009002, x1 = 3.6e-07	0.000905	0.00101	0.00113	0.00125	0.00138
x2 = 0.0009002, x1 = 7.2e-07	0.00104	0.00117	0.0013	0.00144	0.00159
x2 = 0.0009002, x1 = 9.1e-07	0.00119	0.00133	0.00148	0.00164	0.00181
x2 = 0.0009002, x1 = 1.27e-06	0.00132	0.00148	0.00165	0.00183	0.00201
x2 = 0.0009002, x1 = 1.63e-06	0.00147	0.00166	0.00184	0.00204	0.00225
x2 = 0.0009002, x1 = 1.99e-06	0.00163	0.00185	0.00207	0.00229	0.00253
x2 = 0.0009002, x1 = 2.54e-06	0.00179	0.00203	0.00229	0.00255	0.00282
x2 = 0.0009002, x1 = 2.9e-06	–	–	–	0.00275	0.00309
x2 = 0.0009002, x1 = 3.08e-06	0.00192	0.00218	0.00246	–	–
x2 = 0.0009002, x1 = 3.44e-06	0.00203	0.00231	0.00263	0.00297	0.00331
x2 = 0.0009002, x1 = 3.81e-06	–	0.00243	0.00276	0.00311	0.00348
x2 = 0.0009002, x1 = 3.99e-06	0.00214	–	–	–	–
x2 = 0.0009002, x1 = 4.35e-06	0.00224	0.00256	0.00289	0.00327	0.00366
x2 = 0.0009002, x1 = 4.71e-06	0.00235	0.00268	0.00303	0.00342	0.00383
x2 = 0.0009002, x1 = 5.07e-06	–	–	0.00316	0.00356	0.00399
x2 = 0.0009002, x1 = 5.26e-06	0.00246	0.0028	–	–	–
x2 = 0.0009002, x1 = 5.62e-06	0.00255	0.0029	0.00328	0.00369	0.00415
x2 = 0.0009002, x1 = 5.98e-06	0.00266	0.00302	0.00341	0.00383	0.0043
x2 = 0.001799, x1 = 3.6e-07	0.00153	0.00172	0.00192	0.00213	0.00235
x2 = 0.001799, x1 = 5.5e-07	0.00167	0.00187	0.00208	0.00231	0.00256
x2 = 0.001799, x1 = 9.1e-07	0.00179	0.00201	0.00224	0.00249	0.00275
x2 = 0.001799, x1 = 1.09e-06	0.00192	0.00216	0.00241	0.00268	0.00296
x2 = 0.001799, x1 = 1.46e-06	0.00204	0.00229	0.00256	0.00283	0.00313
x2 = 0.001799, x1 = 1.64e-06	0.00212	0.00239	0.00267	0.00297	0.00329
x2 = 0.001799, x1 = 1.82e-06	0.00221	0.00248	0.00278	0.00309	0.00341
x2 = 0.001799, x1 = 2e-06	0.00227	0.00257	0.00288	0.00321	0.00356
x2 = 0.001799, x1 = 2.19e-06	0.00235	–	0.003	0.00334	0.0037
x2 = 0.001799, x1 = 2.37e-06	–	–	–	–	0.00384
x2 = 0.001799, x1 = 2.55e-06	0.00242	0.00275	–	0.00345	–
x2 = 0.001799, x1 = 2.73e-06	0.00249	0.00284	0.00322	0.00361	0.00402
x2 = 0.001799, x1 = 3.1e-06	0.00256	0.00291	0.0033	0.0037	0.00413
x2 = 0.001799, x1 = 3.28e-06	0.00262	0.00298	0.00338	0.00379	0.00423
x2 = 0.001799, x1 = 3.46e-06	–	–	–	–	0.00434
x2 = 0.001799, x1 = 3.64e-06	0.00269	0.00306	0.00347	0.00389	–
x2 = 0.001799, x1 = 3.83e-06	0.00275	0.00312	0.00354	0.00397	0.00443
